{"source": "patent US20020137154A1", "about": "“Methods for improving cell growth and alcohol production during fermentation” (priority 2000, published 2002)", "test_system": "recombinant Escherichia coli KO11", "assay": "Batch fermentation of E. coli KO11 in 1% CSL medium and xylose with nutrient additives: ethanol production and cell growth", "format": "cell-based", "settings": "for Ethanol Production Maximum / Ethanol yield / Initial Growth (OD @ 24 h) OD / Maximum Cell Density OD / Maximum Cell Density Time / Volumetric Productivity Average / Volumetric Productivity Maximum: 1% CSL+xylose; for activity at 250 µg/mL / activity at 100 µg/mL / activity at 500 µg/mL: Escherichia coli", "key": {"[1]": {"settings": "1% CSL and xylose, 0.25 g/L at the start and after 12 hours"}, "[2]": {"settings": "3 × 0.25 g/L (start, 12 h, 24 h)"}}, "note": "Like-named read-outs stand apart in the source and are kept apart here.", "data": [{"smiles": "CC=O", "note": "[Acetaldehyde, acetaldehyde]", "values": [{"measurement": "ethanol production as compared to the control", "setting": "[1]", "result": "highest amount of ethanol production"}, {"measurement": "initial growth and maximum cell density as compared to a control", "setting": "[1]", "result": "greatest initial growth and maximum cell density"}, {"measurement": "Ethanol Production Maximum", "setting": "0.1 g/L at start", "result": 29.51, "unit": "g/L"}, {"measurement": "Ethanol yield", "setting": "0.1 g/L at start", "result": "0.304 grams of ethanol/grams of added sugar"}, {"measurement": "Initial Growth (OD @ 24 h) OD", "setting": "0.1 g/L at start", "result": 2.25, "unit": "OD"}, {"measurement": "Maximum Cell Density OD", "setting": "0.1 g/L at start", "result": 2.56, "unit": "OD"}, {"measurement": "Maximum Cell Density Time", "setting": "0.1 g/L at start", "result": 48, "unit": "h"}, {"measurement": "Volumetric Productivity Average", "setting": "0.1 g/L at start", "result": "0.307 grams ethanol/(liter)(hour)"}, {"measurement": "Volumetric Productivity Maximum", "setting": "0.1 g/L at start", "result": "0.389 grams ethanol/(liter)(hour)"}, {"measurement": "Ethanol Production Maximum", "setting": "0.25 g/L at start", "result": 34.45, "unit": "g/L"}, {"measurement": "Ethanol yield", "setting": "0.25 g/L at start", "result": "0.355 grams of ethanol/grams of added sugar"}, {"measurement": "Initial Growth (OD @ 24 h) OD", "setting": "0.25 g/L at start", "result": 2.48, "unit": "OD"}, {"measurement": "Maximum Cell Density OD", "setting": "0.25 g/L at start", "result": 3.12, "unit": "OD"}, {"measurement": "Maximum Cell Density Time", "setting": "0.25 g/L at start", "result": 96, "unit": "h"}, {"measurement": "Volumetric Productivity Average", "setting": "0.25 g/L at start", "result": "0.359 grams ethanol/(liter)(hour)"}, {"measurement": "Volumetric Productivity Maximum", "setting": "0.25 g/L at start", "result": "0.425 grams ethanol/(liter)(hour)"}, {"measurement": "Ethanol Production Maximum", "setting": "0.5 g/L at start", "result": 42.66, "unit": "g/L"}, {"measurement": "Ethanol yield", "setting": "0.5 g/L at start", "result": "0.439 grams of ethanol/grams of added sugar"}, {"measurement": "Initial Growth (OD @ 24 h) OD", "setting": "0.5 g/L at start", "result": 2.55, "unit": "OD"}, {"measurement": "Maximum Cell Density OD", "setting": "0.5 g/L at start", "result": 4.31, "unit": "OD"}, {"measurement": "Maximum Cell Density Time", "setting": "0.5 g/L at start", "result": 96, "unit": "h"}, {"measurement": "Volumetric Productivity Average", "setting": "0.5 g/L at start", "result": "0.444 grams ethanol/(liter)(hour)"}, {"measurement": "Volumetric Productivity Maximum", "setting": "0.5 g/L at start", "result": "0.623 grams ethanol/(liter)(hour)"}, {"measurement": "Ethanol Production Maximum", "setting": "2 × 0.25 g/L (start, 12 h)", "result": 45.57, "unit": "g/L"}, {"measurement": "Ethanol yield", "setting": "2 × 0.25 g/L (start, 12 h)", "result": "0.469 grams of ethanol/grams of added sugar"}, {"measurement": "Initial Growth (OD @ 24 h) OD", "setting": "2 × 0.25 g/L (start, 12 h)", "result": 3.36, "unit": "OD"}, {"measurement": "Maximum Cell Density OD", "setting": "2 × 0.25 g/L (start, 12 h)", "result": 4.67, "unit": "OD"}, {"measurement": "Maximum Cell Density Time", "setting": "2 × 0.25 g/L (start, 12 h)", "result": 96, "unit": "h"}, {"measurement": "Volumetric Productivity Average", "setting": "2 × 0.25 g/L (start, 12 h)", "result": "0.475 grams ethanol/(liter)(hour)"}, {"measurement": "Volumetric Productivity Maximum", "setting": "2 × 0.25 g/L (start, 12 h)", "result": "0.740 grams ethanol/(liter)(hour)"}, {"measurement": "Ethanol Production Maximum", "setting": "[2]", "result": 38.21, "unit": "g/L"}, {"measurement": "Ethanol yield", "setting": "[2]", "result": "0.393 grams of ethanol/grams of added sugar"}, {"measurement": "Initial Growth (OD @ 24 h) OD", "setting": "[2]", "result": 3.04, "unit": "OD"}, {"measurement": "Maximum Cell Density OD", "setting": "[2]", "result": 4.02, "unit": "OD"}, {"measurement": "Maximum Cell Density Time", "setting": "[2]", "result": 48, "unit": "h"}, {"measurement": "Volumetric Productivity Average", "setting": "[2]", "result": "0.398 grams ethanol/(liter)(hour)"}, {"measurement": "Volumetric Productivity Maximum", "setting": "[2]", "result": "0.540 grams ethanol/(liter)(hour)"}, {"measurement": "activity at 250 µg/mL", "setting": "12 h, read-out: Ethanol Production Maximum % Control, 1% CSL+xylose, 2 × 0.25 g/L (start, 12 h)", "result": 152, "unit": "%"}, {"measurement": "activity at 250 µg/mL", "setting": "12 h, read-out: Maximum Cell Density % Control, 1% CSL+xylose, 2 × 0.25 g/L (start, 12 h)", "result": 186, "unit": "%"}, {"measurement": "activity at 250 µg/mL", "setting": "12 h, read-out: Volumetric Productivity Average % Control, 1% CSL+xylose, 2 × 0.25 g/L (start, 12 h)", "result": 152, "unit": "%"}, {"measurement": "activity at 250 µg/mL", "setting": "12 h, read-out: Volumetric Productivity Maximum % Control, 1% CSL+xylose, 2 × 0.25 g/L (start, 12 h)", "result": 201, "unit": "%"}, {"measurement": "activity at 100 µg/mL", "setting": "24 h, read-out: Initial Growth (OD @ 24 h) % Control, 1% CSL+xylose, 0.1 g/L at start", "result": 110, "unit": "%"}, {"measurement": "activity at 250 µg/mL", "setting": "24 h, read-out: Initial Growth (OD @ 24 h) % Control, 1% CSL+xylose, 0.25 g/L at start", "result": 121, "unit": "%"}, {"measurement": "activity at 500 µg/mL", "setting": "24 h, read-out: Initial Growth (OD @ 24 h) % Control, 1% CSL+xylose, 0.5 g/L at start", "result": 125, "unit": "%"}, {"measurement": "activity at 250 µg/mL", "setting": "24 h, read-out: Initial Growth (OD @ 24 h) % Control, 1% CSL+xylose, 2 × 0.25 g/L (start, 12 h)", "result": 165, "unit": "%"}, {"measurement": "activity at 250 µg/mL", "setting": "24 h, read-out: Initial Growth (OD @ 24 h) % Control, 1% CSL+xylose, 3 × 0.25 g/L (start, 12 h, 24 h)", "result": 149, "unit": "%"}, {"measurement": "activity at 100 µg/mL", "setting": "read-out: Ethanol Production Maximum % Control, 1% CSL+xylose, 0.1 g/L at start", "result": 98.1, "unit": "%"}, {"measurement": "activity at 250 µg/mL", "setting": "read-out: Ethanol Production Maximum % Control, 1% CSL+xylose, 0.25 g/L at start", "result": 115, "unit": "%"}, {"measurement": "activity at 500 µg/mL", "setting": "read-out: Ethanol Production Maximum % Control, 1% CSL+xylose, 0.5 g/L at start", "result": 142, "unit": "%"}, {"measurement": "activity at 250 µg/mL", "setting": "read-out: Ethanol Production Maximum % Control, 1% CSL+xylose, 3 × 0.25 g/L (start, 12 h, 24 h)", "result": 127, "unit": "%"}, {"measurement": "activity at 100 µg/mL", "setting": "read-out: Maximum Cell Density % Control, 1% CSL+xylose, 0.1 g/L at start", "result": 102, "unit": "%"}, {"measurement": "activity at 250 µg/mL", "setting": "read-out: Maximum Cell Density % Control, 1% CSL+xylose, 0.25 g/L at start", "result": 124, "unit": "%"}, {"measurement": "activity at 500 µg/mL", "setting": "read-out: Maximum Cell Density % Control, 1% CSL+xylose, 0.5 g/L at start", "result": 171, "unit": "%"}, {"measurement": "activity at 250 µg/mL", "setting": "read-out: Maximum Cell Density % Control, 1% CSL+xylose, 3 × 0.25 g/L (start, 12 h, 24 h)", "result": 160, "unit": "%"}, {"measurement": "activity at 100 µg/mL", "setting": "read-out: Volumetric Productivity Average % Control, 1% CSL+xylose, 0.1 g/L at start", "result": 98.1, "unit": "%"}, {"measurement": "activity at 250 µg/mL", "setting": "read-out: Volumetric Productivity Average % Control, 1% CSL+xylose, 0.25 g/L at start", "result": 115, "unit": "%"}, {"measurement": "activity at 500 µg/mL", "setting": "read-out: Volumetric Productivity Average % Control, 1% CSL+xylose, 0.5 g/L at start", "result": 142, "unit": "%"}, {"measurement": "activity at 250 µg/mL", "setting": "read-out: Volumetric Productivity Average % Control, 1% CSL+xylose, 3 × 0.25 g/L (start, 12 h, 24 h)", "result": 127, "unit": "%"}, {"measurement": "activity at 100 µg/mL", "setting": "read-out: Volumetric Productivity Maximum % Control, 1% CSL+xylose, 0.1 g/L at start", "result": 106, "unit": "%"}, {"measurement": "activity at 250 µg/mL", "setting": "read-out: Volumetric Productivity Maximum % Control, 1% CSL+xylose, 0.25 g/L at start", "result": 115, "unit": "%"}, {"measurement": "activity at 500 µg/mL", "setting": "read-out: Volumetric Productivity Maximum % Control, 1% CSL+xylose, 0.5 g/L at start", "result": 169, "unit": "%"}, {"measurement": "activity at 250 µg/mL", "setting": "read-out: Volumetric Productivity Maximum % Control, 1% CSL+xylose, 3 × 0.25 g/L (start, 12 h, 24 h)", "result": 147, "unit": "%"}]}]}
